# Literature values as cited in paper PMC3969558 (Molecular Biology and Evolution, 2013).
# No end group written: not given here.
# Assays:
# [1] = test system: steroidal receptors (nuclear receptors similar to the sex steroid receptors); conditions: ref Paris et al. 2008; Katsu et al. 2010
# [2] = test system: amphioxus GnRHR3; conditions: ref Tello and Sherwood 2009
molecule,measurement,setting,value
C[C@]12CC[C@@H]3c4ccc(O)cc4CC[C@H]3[C@@H]1CC[C@@H]2O [estradiol],binding to amphioxus steroidal receptor,[1],has been shown to bind one of the steroidal receptors
"vertebrate GnRH2: vertebrate GnRH2, present throughout the vertebrates, 10 amino acids (QHWSHGWYPG; ends and bridges not checked; UniProt O43555 24-33, looked up)",activation of GnRHR3 (earlier study),[2],activated amphioxus GnRHR3 within the vertebrate physiological range
